In US8575091B1, “Amylin analogues and pharmaceutical compositions thereof” (Novo Nordisk A/S, priority 2012, dated 2013):
Where two headings read alike, the source gives them in different places. Numbered stars: 1 amine (or outer) side, 2 acyl side, 3 side chain; on linkers, the order of the positions; unused ones are H or OH. Bridge positions count the residues as written; N and C are the ends. Side chains are listed from the residue outwards. Peptide text beside a SMILES is read from it. * marks the point of attachment. C20 diacid = O=C(O)CCCCCCCCCCCCCCCCCCC(=O)*; γGlu = O=C(O)[C@H](CCC(=O)[*:2])N[*:1]

Experiments:
human amylin receptor = molecular target: T1, human amylin receptor (Homo sapiens, UniProt O60896+P30988); test: Assay (V) binding to the human amylin receptor (SPA, 125I-rat amylin); details: for IC50: read-out: hAmylin-R bind IC50
T1 construct: expressed in transfected cells
T1 sequence (P30988 25-474): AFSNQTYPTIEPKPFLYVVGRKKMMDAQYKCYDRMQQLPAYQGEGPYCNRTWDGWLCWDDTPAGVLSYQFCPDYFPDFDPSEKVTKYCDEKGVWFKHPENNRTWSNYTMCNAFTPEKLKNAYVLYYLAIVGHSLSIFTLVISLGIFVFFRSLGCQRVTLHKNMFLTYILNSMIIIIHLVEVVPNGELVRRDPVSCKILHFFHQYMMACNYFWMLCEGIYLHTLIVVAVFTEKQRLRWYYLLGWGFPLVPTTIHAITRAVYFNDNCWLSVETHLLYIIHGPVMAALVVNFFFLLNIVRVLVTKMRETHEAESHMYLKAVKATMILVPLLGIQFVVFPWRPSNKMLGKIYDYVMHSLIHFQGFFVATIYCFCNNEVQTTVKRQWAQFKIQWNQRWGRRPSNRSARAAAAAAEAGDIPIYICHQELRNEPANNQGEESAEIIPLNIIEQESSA
T1 sequence (O60896 24-148 partner): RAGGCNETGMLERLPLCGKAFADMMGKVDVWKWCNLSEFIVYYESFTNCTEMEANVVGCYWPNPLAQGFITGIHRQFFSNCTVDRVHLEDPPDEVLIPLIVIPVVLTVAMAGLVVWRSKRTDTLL
Outline: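 IC50, taken as receptor affinity, came from one-site binding competition analysis of scintillation proximity counts. Amylin 3(a)/CRE-luc cell membranes (35 ng/μL final) were mixed with SPA beads (0.05 mg/well) in 50 mM Hepes pH 7.4 containing CaCl2, MgCl2, 0.1% OA and 0.02% Tween20.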

[1] = molecular target: T2, human amylin receptor (amylin 3(a) receptor: human calcitonin receptor + RAMP-3) (Homo sapiens, UniProt O60896+P30988); test: Assay (II)a functional assay, human amylin receptor (CRE luciferase, BHK cells); assay type: cell-based; details: for EC50: functional assay, human amylin receptor, read-out: hAmylin-R funct. EC50
T2 construct: expressed in transfected cells
T2 sequence (P30988 25-474): T1 sequence (P30988 25-474)
T2 sequence (O60896 24-148 partner): T1 sequence (O60896 24-148 partner)

[2] = molecular target: T3, human calcitonin receptor (Homo sapiens, UniProt P30988); test: Assay (II)a functional assay, human calcitonin receptor (CRE luciferase, BHK cells);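 further: luminescence from a CRE-driven luciferase reporter, read by single photon counting after cells were exposed to test samples for 3 h at 37 °C under 5% CO2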; assay type: cell-based; details: read-out: hCTR funct. EC50
T3 construct: expressed in transfected cells
T3 sequence (P30988 25-474): T1 sequence (P30988 25-474)
Protocol: Assay (II)—Functional Assays
Consequently, transcription is activated by promoters containing multiple copies of the cAMP response element (CRE).
The cell line was further transfected with RAMP-3, using standard methods.
After incubation overnight at 37° C. and 5% CO2, the growth medium was replaced by 50 μl/well assay medium (DMEM (without phenol red), Glutamax™, 10% FBS, and 10 mM Hepes, pH 7.4). Further, 50 μl/well of standard or sample in assay buffer were added. After 3 hours incubation at 37° C. and 5% CO2, the assay medium with standard or sample were removed and replaced by 100 μl/well PBS. Further, 100 μl/well LucLite™ was added. The plates were sealed and incubated at room temperature for 30 minutes. Finally, luminescence was measured on a TopCounter (Packard) in SPC (single photon counting) mode.

[3] = molecular target: T3, human calcitonin receptor; test: Assay (VII) binding to the human calcitonin receptor (SPA, 125I-Calcitonin); details: read-out: hCTR bind IC50;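 further: cell membranes coupled to SPA beads, competitive displacement read by scintillation counting, IC50 derived from a one-site competition fit as a measure of receptor affinity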
Wistar rats = test: Assay (XII) single subcutaneous administration, plasma calcium in rats; assay type: in vivo, rat; details: 100 nmol/kg
Protocol: Assay (XII)—Effect from Single Subcutaneous Administration of Analogue on Plasma Calcium in Rats
Male Wistar rats (Taconic Europe, ˜250 g at test date) were acclimatized to handling prior to the study. Rats were divided in groups of five and subcutaneously dosed with test compound at time=0. At time T=−15 min; 1 h, 2 h, 4 h, 7 h, 12 h, and 24 h a blood sample was obtained and heparin stabilized plasma was analysed for total calcium (Cobas, Hitachi). Data are illustrated in graphs as mean±SEM.

[4] = Assay (IV) determination of solubility; assay type: physicochemical; details: for Solubility pH 6.5 Concentration (μM): pH 6.5, 18 hours room temperature; for Solubility pH 7.0 Concentration (μM): pH 7.0, 18 hours room temperature; for Solubility pH 7.5 Concentration (μM): pH 7.5, 18 hours room temperature; for Solubility pH 8.0 Concentration (μM): pH 8.0, 18 hours room temperature
Protocol: Assay (IV)—Determination of Solubility
The polypeptide was dissolved in water at ˜500 nmol/ml and mixed 1:1 with a series of buffers (100 mM glycylglycine pH 3.0, 100 mM glycylglycine pH 4.0, 100 mM glycylglycine pH 5.0, 100 mM bistrispropane pH 6.0, 100 mM bistrispropane pH 6.5, 100 mM bistrispropane pH 7.0, 100 mM bistrispropane pH 7.5, 100 mM bistrispropane pH 8.0). After 18 hours at room temperature the samples were centrifuged and the polypeptide concentration determined by UPLC.

[5] = human amylin receptor membranes, SPA
[6] = Table 6, human functional selectivity (hCTR EC50 / hAmylin-R EC50)
[7] = Table 6a, human functional selectivity (hCTR EC50 / hAmylin-R EC50), at least 5
[8] = Table 6j, hCTR funct. EC50 / hAmylin-R funct. EC50
[9] = Table 6k, hCTR funct. EC50 / hAmylin-R funct. EC50

CC[C@H](C)[C@H](NC(=O)[C@H](C)NC(=O)CNC(=O)[C@H](Cc1ccccc1)NC(=O)[C@H](CC(N)=O)NC(=O)[C@@H]1CCCN1C(=O)[C@H](CO)NC(=O)[C@H](CO)NC(=O)[C@H](Cc1c[nH]cn1)NC(=O)[C@H](CCCNC(=N)N)NC(=O)[C@H](CC(C)C)NC(=O)[C@H](Cc1ccccc1)NC(=O)[C@H](CC(=O)O)NC(=O)[C@H](C)NC(=O)[C@H](CC(C)C)NC(=O)[C@H](CCCNC(=N)N)NC(=O)[C@H](CCC(N)=O)NC(=O)[C@@H](NC(=O)[C@H](C)NC(=O)[C@@H]1CSSC[C@H](NC(=O)[C@@H](N)CCCCNC(=O)CC[C@H](NC(=O)CC[C@H](NC(=O)CCCCCCCCCCCCCCCCCCC(=O)O)C(=O)O)C(=O)O)C(=O)N[C@@H](CC(N)=O)C(=O)N[C@@H]([C@@H](C)O)C(=O)N[C@@H](C)C(=O)N[C@@H]([C@@H](C)O)C(=O)N1)[C@@H](C)O)C(=O)N1CCC[C@H]1C(=O)N[C@@H](CO)C(=O)N[C@@H](CO)C(=O)N[C@H](C(=O)N[C@@H](CC(N)=O)C(=O)N[C@H](C(=O)NCC(=O)N[C@@H](CO)C(=O)N[C@@H](CC(=O)O)C(=O)N[C@H](C(=O)N[C@@H](Cc1ccc(O)cc1)C(N)=O)[C@@H](C)O)C(C)C)[C@@H](C)O [Example 2] (H-K([γGlu-γGlu-C20 diacid])CNTATCATQRLADFLRHSSPNFGAIPSSTNVGSDTY-NH2; disulfide 2-7)
IC50 (human amylin receptor; [5]): 0.411 nM
EC50 [1]: 0.182 nM
EC50 [2]: 3 nM
IC50 [3]: 19.5 nM
Plasma calcium red (%) 0-12 h (Wistar rats; single s.c., maximal reduction 0-12 h, compared to vehicle): 9%
suppression of plasma calcium level relative to vehicle (Wistar rats; single subcutaneous, over 24 hours): does not trigger a notable suppression of the calcium level

CC[C@H](C)[C@H](NC(=O)[C@H](C)NC(=O)CNC(=O)[C@H](Cc1ccccc1)NC(=O)[C@H](CC(N)=O)NC(=O)[C@@H]1CCCN1C(=O)[C@H](CO)NC(=O)[C@H](CO)NC(=O)[C@H](Cc1c[nH]cn1)NC(=O)[C@H](CCCNC(=N)N)NC(=O)[C@H](CC(C)C)NC(=O)[C@H](Cc1ccccc1)NC(=O)[C@H](CC(N)=O)NC(=O)[C@H](C)NC(=O)[C@H](CC(C)C)NC(=O)[C@H](CCCNC(=N)N)NC(=O)[C@H](CCC(N)=O)NC(=O)[C@@H](NC(=O)[C@H](C)NC(=O)[C@@H]1CSSC[C@H](NC(=O)[C@@H](N)CCCCNC(=O)COCCOCCNC(=O)COCCOCCNC(=O)CC[C@H](NC(=O)CCCCCCCCCCCCCCCCCCC(=O)O)C(=O)O)C(=O)N[C@@H](CC(N)=O)C(=O)N[C@@H]([C@@H](C)O)C(=O)N[C@@H](C)C(=O)N[C@@H]([C@@H](C)O)C(=O)N1)[C@@H](C)O)C(=O)N1CCC[C@H]1C(=O)N[C@@H](CO)C(=O)N[C@@H](CO)C(=O)N[C@H](C(=O)N[C@@H](CC(N)=O)C(=O)N[C@H](C(=O)NCC(=O)N[C@@H](Cc1c[nH]cn1)C(=O)N[C@@H](CC(N)=O)C(=O)N[C@H](C(=O)N[C@@H](Cc1ccc(O)cc1)C(N)=O)[C@@H](C)O)C(C)C)[C@@H](C)O [Example 97]
IC50 (human amylin receptor; [5]): 0.568 nM
Ratio hCT/hAmylin funct. [1, 6]: 33.0
Ratio hCT/hAmylin funct. [1, 7]: 33.0
Ratio hCT/hAmylin funct. [1, 8]: 33.0
Ratio hCT/hAmylin funct. [1, 9]: 33.0
EC50 [1]: 0.356 nM
EC50 [2]: 11.7 nM
IC50 [3]: 58.9 nM
Solubility pH 6.5 Concentration (μM) [4]: ≧200 μM
Solubility pH 7.0 Concentration (μM) [4]: ≧200 μM
Solubility pH 7.5 Concentration (μM) [4]: 88 μM
Solubility pH 8.0 Concentration (μM) [4]: 43 μM

CC[C@H](C)[C@H](NC(=O)[C@H](C)NC(=O)CNC(=O)[C@H](Cc1ccccc1)NC(=O)[C@H](CC(N)=O)NC(=O)[C@@H]1CCCN1C(=O)[C@H](CO)NC(=O)[C@H](CO)NC(=O)[C@H](Cc1c[nH]cn1)NC(=O)[C@H](CCCNC(=N)N)NC(=O)[C@H](CC(C)C)NC(=O)[C@H](Cc1ccccc1)NC(=O)[C@H](Cc1c[nH]cn1)NC(=O)[C@H](C)NC(=O)[C@H](CC(C)C)NC(=O)[C@H](CCCNC(=N)N)NC(=O)[C@H](CCC(N)=O)NC(=O)[C@@H](NC(=O)[C@H](C)NC(=O)[C@@H]1CSSC[C@H](NC(=O)[C@H](CCCNC(=N)N)NC(=O)CNC(=O)CC[C@H](NC(=O)CCCCCCCCCCCCCCCCCCC(=O)O)C(=O)O)C(=O)N[C@@H](CC(N)=O)C(=O)N[C@@H]([C@@H](C)O)C(=O)N[C@@H](C)C(=O)N[C@@H]([C@@H](C)O)C(=O)N1)[C@@H](C)O)C(=O)N1CCC[C@H]1C(=O)N[C@@H](CO)C(=O)N[C@@H](CO)C(=O)N[C@H](C(=O)N[C@@H](CC(N)=O)C(=O)N[C@H](C(=O)NCC(=O)N[C@@H](Cc1c[nH]cn1)C(=O)N[C@@H](CC(N)=O)C(=O)N[C@H](C(=O)N[C@@H](Cc1ccc(O)cc1)C(N)=O)[C@@H](C)O)C(C)C)[C@@H](C)O [Example 100] ({C20 diacid-γGlu}-GRCNTATCATQRLAHFLRHSSPNFGAIPSSTNVGHNTY-NH2; disulfide 3-8)
IC50 (human amylin receptor; [5]): 1.02 nM
Ratio hCT/hAmylin funct. [1, 6]: 6.8
Ratio hCT/hAmylin funct. [1, 7]: 6.8
Ratio hCT/hAmylin funct. [1, 8]: 6.8
Ratio hCT/hAmylin funct. [1, 9]: 6.8
EC50 [1]: 0.253 nM
EC50 [2]: 1.73 nM
IC50 [3]: 66.3 nM
Solubility pH 6.5 Concentration (μM) [4]: ≧200 μM
Solubility pH 7.0 Concentration (μM) [4]: 109 μM
Solubility pH 7.5 Concentration (μM) [4]: 26 μM
Solubility pH 8.0 Concentration (μM) [4]: 31 μM

CC[C@H](C)[C@H](NC(=O)[C@H](C)NC(=O)CNC(=O)[C@@H]1CCCN1C(=O)[C@H](CC(N)=O)NC(=O)[C@H](CC(N)=O)NC(=O)[C@H](CO)NC(=O)[C@H](CO)NC(=O)[C@H](Cc1c[nH]cn1)NC(=O)[C@H](CCCNC(=N)N)NC(=O)[C@H](CC(C)C)NC(=O)[C@H](Cc1ccccc1)NC(=O)[C@H](CCC(=O)O)NC(=O)[C@H](C)NC(=O)[C@H](CC(C)C)NC(=O)[C@H](CCCNC(=N)N)NC(=O)[C@H](CCC(N)=O)NC(=O)[C@@H](NC(=O)[C@H](C)NC(=O)[C@@H]1CSSC[C@H](NC(=O)[C@@H](N)CCCCNC(=O)CC[C@H](NC(=O)CC[C@H](NC(=O)CCCCCCCCCCCCCCCCCCC(=O)O)C(=O)O)C(=O)O)C(=O)N[C@@H](CC(N)=O)C(=O)N[C@@H]([C@@H](C)O)C(=O)N[C@@H](C)C(=O)N[C@@H]([C@@H](C)O)C(=O)N1)[C@@H](C)O)C(=O)N[C@@H](CC(C)C)C(=O)N[C@@H](CO)C(=O)N[C@@H](CO)C(=O)N[C@H](C(=O)N[C@@H](CC(N)=O)C(=O)N[C@H](C(=O)NCC(=O)N1CCC[C@H]1C(=O)N[C@@H](CCC(=O)O)C(=O)N[C@H](C(=O)N[C@@H](Cc1ccc(O)cc1)C(N)=O)[C@@H](C)O)C(C)C)[C@@H](C)O [Example 126] (H-K([γGlu-γGlu-C20 diacid])CNTATCATQRLAEFLRHSSNNPGAILSSTNVGPETY-NH2; disulfide 2-7)
IC50 (human amylin receptor; binding to human amylin receptor): 1.19 nM
IC50 (human amylin receptor; [5]): 1.19 nM
Ratio hCT/hAmylin binding (human amylin receptor; human binding ratio, included for comparison): 7.8
EC50 [1]: 5.17 nM
EC50 [2]: 89.6 nM
IC50 [3]: 9.29 nM
Solubility pH 4.0 Concentration (μM) ([4]; pH 4.0, 18 hours room temperature): 7 μM
Solubility pH 6.0 Concentration (μM) ([4]; pH 6.0, 18 hours room temperature): 64 μM
